Results reported in patent US11096985B2, “Antimicrobial peptides, their variants and uses” (priority 2015, dated 2021).
Where a SMILES comes first, the peptide text is derived from it. [ ]: non-standard residue; d: D form.

Assays:
[1] = test system: clinical strains of C. parapsilosis; test: MIC, clinical yeast strains, C. parapsilosis; format: cell-based, Candida parapsilosis; parameters: unit: μg/ml
How it was run: (§1)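 Broth microdilution in Mueller Hinton broth, inoculum adjusted to 5.0×10^5 cfu/ml, peptide tested at 0.125 to 128 μg/ml and incubated at 37° C. for 20 to 24 hours. MIC was the lowest concentration with no visible growth. Yeasts were tested in potato dextrose broth.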

[2] = test system: clinical strains of Staphylococcus aureus; test: MIC, clinical strains of S. aureus; format: cell-based; parameters: unit: μg/ml; conditions: microdilution, Muller Hinton broth-cation adjusted, 0.02% BSA, 0.2% acetic acid
How it was run: as §1

[3] = test system: clinical strains of C. glabrata; test: MIC, clinical yeast strains, C. glabrata; format: cell-based, Candida glabrata; parameters: unit: μg/ml
How it was run: as §1

[4] = test system: clinical strains of Klebsiella pneumoniae; test: MIC, clinical strains of K. pneumoniae; format: cell-based; parameters: unit: μg/ml; conditions: microdilution, Muller Hinton broth-cation adjusted, 0.02% BSA, 0.2% acetic acid
How it was run: as §1

[5] = test system: clinical strains of Escherichia coli; test: MIC, clinical strains of E. coli; format: cell-based; parameters: unit: μg/ml; conditions: microdilution, Muller Hinton broth-cation adjusted, 0.02% BSA, 0.2% acetic acid
How it was run: as §1

[6] = test system: clinical strains of Proteus mirabilis; test: MIC, clinical strains of Proteus mirabilis; format: cell-based; parameters: unit: µg/mL; conditions: microdilution, Muller Hinton broth-cation adjusted, 0.02% BSA, 0.2% acetic acid
How it was run: as §1

[7] = test system: clinical strains of Pseudomonas aeruginosa; test: MIC, clinical strains of P. aeruginosa; format: cell-based; parameters: unit: μg/ml; conditions: microdilution, Muller Hinton broth-cation adjusted, 0.02% BSA, 0.2% acetic acid
How it was run: as §1

[8] = test system: clinical strains of Candida albicans; test: MIC, clinical yeast strains, Candida albicans; format: cell-based; parameters: unit: μg/ml
How it was run: as §1

[9] = test system: clinical strains of Enterobacter cloacae; test: MIC, clinical strains of Enterobacter cloacae; format: cell-based; parameters: unit: μg/ml; conditions: microdilution, Muller Hinton broth-cation adjusted, 0.02% BSA, 0.2% acetic acid
How it was run: as §1

[10] = test system: clinical strains of C. quillermondiae; test: MIC, clinical yeast strains, C. quillermondiae; format: cell-based; conditions: C. quillermondiae clinical yeast strain 1
How it was run: as §1

[11] = test system: clinical strains of Streptococcus pneumoniae; test: MIC, clinical strains of Streptococcus pneumoniae; format: cell-based; parameters: unit: µg/mL; conditions: microdilution, Muller Hinton broth-cation adjusted, 0.02% BSA, 0.2% acetic acid
How it was run: as §1

[12] = test system: clinical strains of Serratia marcescens; test: MIC, clinical strains of Serratia marcescens; format: cell-based; parameters: unit: µg/mL; conditions: microdilution, Muller Hinton broth-cation adjusted, 0.02% BSA, 0.2% acetic acid
How it was run: as §1

[13] = C. parapsilosis clinical yeast strain 1
[14] = C. parapsilosis clinical yeast strain 2
[15] = C. parapsilosis clinical yeast strain 3
[16] = C. parapsilosis clinical yeast strain 4
[17] = Staphylococcus aureus clinical strain 1
[18] = Staphylococcus aureus clinical strain 2
[19] = Staphylococcus aureus clinical strain 3
[20] = Staphylococcus aureus clinical strain 4
[21] = Staphylococcus aureus clinical strain 5
[22] = C. glabrata clinical yeast strain 1
[23] = C. glabrata clinical yeast strain 2
[24] = C. glabrata clinical yeast strain 3
[25] = C. glabrata clinical yeast strain 4
[26] = Klebsiella pneumoniae clinical strain 1
[27] = Klebsiella pneumoniae clinical strain 2
[28] = Klebsiella pneumoniae clinical strain 3
[29] = Klebsiella pneumoniae clinical strain 4
[30] = Klebsiella pneumoniae clinical strain 5
[31] = Escherichia coli clinical strain 1
[32] = Escherichia coli clinical strain 2
[33] = Escherichia coli clinical strain 3
[34] = Escherichia coli clinical strain 4
[35] = Escherichia coli clinical strain 5
[36] = Proteus mirabilis clinical strain 1
[37] = Proteus mirabilis clinical strain 2
[38] = Proteus mirabilis clinical strain 3
[39] = Proteus mirabilis clinical strain 4
[40] = Proteus mirabilis clinical strain 5
[41] = Pseudomonas aeruginosa clinical strain 1
[42] = Pseudomonas aeruginosa clinical strain 2
[43] = Pseudomonas aeruginosa clinical strain 3
[44] = Pseudomonas aeruginosa clinical strain 4
[45] = Pseudomonas aeruginosa clinical strain 5
[46] = Candida albicans clinical yeast strain 1
[47] = Candida albicans clinical yeast strain 2
[48] = Candida albicans clinical yeast strain 3
[49] = Candida albicans clinical yeast strain 4
[50] = Candida albicans clinical yeast strain 5
[51] = Enterobacter cloacae clinical strain 1
[52] = Enterobacter cloacae clinical strain 2
[53] = Enterobacter cloacae clinical strain 3
[54] = Enterobacter cloacae clinical strain 4
[55] = Enterobacter cloacae clinical strain 5
[56] = Streptococcus pneumoniae clinical strain 1
[57] = Streptococcus pneumoniae clinical strain 2
[58] = Streptococcus pneumoniae clinical strain 3
[59] = Streptococcus pneumoniae clinical strain 4
[60] = Streptococcus pneumoniae clinical strain 5
[61] = Serratia marcescens clinical strain 1
[62] = Serratia marcescens clinical strain 2
[63] = Serratia marcescens clinical strain 3
[64] = Serratia marcescens clinical strain 4
[65] = Serratia marcescens clinical strain 5

CC(C)C[C@@H](NC(=O)[C@H](N)CCCCN)C(=O)N[C@H](CCCCN)C(=O)N[C@H](Cc1c[nH]c2ccccc12)C(=O)N[C@H](Cc1ccccc1)C(=O)N[C@H](Cc1c[nH]c2ccccc12)C(=O)N[C@H](CC(C)C)C(=O)N[C@H](Cc1ccccc1)C(=O)N[C@H](CCCCN)C(=O)N[C@H](CCCCN)C(=O)N[C@H](CCCNC(=N)N)C(=O)O [Chain311D] (H-[dK][dL][dK][dW][dF][dW][dL][dF][dK][dK][dR]-OH)
Minimum inhibitory concentration [1, 13]: 16 | Minimum inhibitory concentration [1, 14]: 8 | Minimum inhibitory concentration [1, 15]: 8 | Minimum inhibitory concentration [1, 16]: 8 | Minimum inhibitory concentration [2, 17]: 1 | Minimum inhibitory concentration [2, 18]: 1 | Minimum inhibitory concentration [2, 19]: 1 | Minimum inhibitory concentration [2, 20]: 1 | Minimum inhibitory concentration [2, 21]: 1 | Minimum inhibitory concentration [3, 22]: 16 | Minimum inhibitory concentration [3, 23]: 16 | Minimum inhibitory concentration [3, 24]: 8 | Minimum inhibitory concentration [3, 25]: 64 | Minimum inhibitory concentration [4, 26]: 8 | Minimum inhibitory concentration [4, 27]: 8 | Minimum inhibitory concentration [4, 28]: 4 | Minimum inhibitory concentration [4, 29]: 8 | Minimum inhibitory concentration [4, 30]: 4 | Minimum inhibitory concentration [5, 31]: 2 | Minimum inhibitory concentration [5, 32]: 2 | Minimum inhibitory concentration [5, 33]: 1 | Minimum inhibitory concentration [5, 34]: 0.5 | Minimum inhibitory concentration [5, 35]: 1 | Minimum inhibitory concentration [6, 36]: >128 | Minimum inhibitory concentration [6, 37]: 128 | Minimum inhibitory concentration [6, 38]: 128 | Minimum inhibitory concentration [6, 39]: >128 | Minimum inhibitory concentration [6, 40]: >128 | Minimum inhibitory concentration [7, 41]: 16 | Minimum inhibitory concentration [7, 42]: 8 | Minimum inhibitory concentration [7, 43]: 16 | Minimum inhibitory concentration [7, 44]: 8 | Minimum inhibitory concentration [7, 45]: 4 | Minimum inhibitory concentration [8, 46]: 8 | Minimum inhibitory concentration [8, 47]: 8 | Minimum inhibitory concentration [8, 48]: 8 | Minimum inhibitory concentration [8, 49]: 16 | Minimum inhibitory concentration [8, 50]: 16 | Minimum inhibitory concentration [9, 51]: 4 | Minimum inhibitory concentration [9, 52]: 4 | Minimum inhibitory concentration [9, 53]: 4 | Minimum inhibitory concentration [9, 54]: 4 | Minimum inhibitory concentration [9, 55]: 2 | Minimum inhibitory concentration [10]: 4 | Minimum inhibitory concentration [11, 56]: 16 | Minimum inhibitory concentration [11, 57]: 8 | Minimum inhibitory concentration [11, 58]: 16 | Minimum inhibitory concentration [11, 59]: 4 | Minimum inhibitory concentration [11, 60]: 8 | Minimum inhibitory concentration [12, 61]: >128 | Minimum inhibitory concentration [12, 62]: >128 | Minimum inhibitory concentration [12, 63]: >128 | Minimum inhibitory concentration [12, 64]: >128 | Minimum inhibitory concentration [12, 65]: >128

CC(C)C[C@@H](NC(=O)[C@H](N)CCCNC(=N)N)C(=O)N[C@H](CCCCN)C(=O)N[C@H](Cc1c[nH]c2ccccc12)C(=O)N[C@H](Cc1ccccc1)C(=O)N[C@H](Cc1c[nH]c2ccccc12)C(=O)N[C@H](CC(C)C)C(=O)N[C@H](Cc1ccccc1)C(=O)N[C@H](CCCNC(=N)N)C(=O)N[C@H](CCCCN)C(=O)N[C@H](CCCNC(=N)N)C(=O)O [Chain307D] (H-[dR][dL][dK][dW][dF][dW][dL][dF][dR][dK][dR]-OH)
Minimum inhibitory concentration [1, 13]: 16 | Minimum inhibitory concentration [1, 14]: 8 | Minimum inhibitory concentration [1, 15]: 8 | Minimum inhibitory concentration [1, 16]: 8 | Minimum inhibitory concentration [2, 17]: 2 | Minimum inhibitory concentration [2, 18]: 2 | Minimum inhibitory concentration [2, 19]: 2 | Minimum inhibitory concentration [2, 20]: 2 | Minimum inhibitory concentration [2, 21]: 2 | Minimum inhibitory concentration [3, 22]: 8 | Minimum inhibitory concentration [3, 23]: 16 | Minimum inhibitory concentration [3, 24]: 8 | Minimum inhibitory concentration [3, 25]: 16 | Minimum inhibitory concentration [4, 26]: 8 | Minimum inhibitory concentration [4, 27]: 8 | Minimum inhibitory concentration [4, 28]: 16 | Minimum inhibitory concentration [4, 29]: 16 | Minimum inhibitory concentration [4, 30]: 4 | Minimum inhibitory concentration [5, 31]: 4 | Minimum inhibitory concentration [5, 32]: 4 | Minimum inhibitory concentration [5, 33]: 4 | Minimum inhibitory concentration [5, 34]: 2 | Minimum inhibitory concentration [5, 35]: 4 | Minimum inhibitory concentration [6, 36]: >128 | Minimum inhibitory concentration [6, 37]: 128 | Minimum inhibitory concentration [6, 38]: 128 | Minimum inhibitory concentration [6, 39]: >128 | Minimum inhibitory concentration [6, 40]: >128 | Minimum inhibitory concentration [7, 41]: 16 | Minimum inhibitory concentration [7, 42]: 16 | Minimum inhibitory concentration [7, 43]: 16 | Minimum inhibitory concentration [7, 44]: 8 | Minimum inhibitory concentration [7, 45]: 8 | Minimum inhibitory concentration [8, 46]: 16 | Minimum inhibitory concentration [8, 47]: 16 | Minimum inhibitory concentration [8, 48]: 16 | Minimum inhibitory concentration [8, 49]: 16 | Minimum inhibitory concentration [8, 50]: 16 | Minimum inhibitory concentration [9, 51]: 4 | Minimum inhibitory concentration [9, 52]: 8 | Minimum inhibitory concentration [9, 53]: 4 | Minimum inhibitory concentration [9, 54]: 4 | Minimum inhibitory concentration [9, 55]: 4 | Minimum inhibitory concentration [10]: 4 | Minimum inhibitory concentration [11, 56]: 4 | Minimum inhibitory concentration [11, 57]: 4 | Minimum inhibitory concentration [11, 58]: 4 | Minimum inhibitory concentration [11, 59]: 2 | Minimum inhibitory concentration [11, 60]: 2 | Minimum inhibitory concentration [12, 61]: >128 | Minimum inhibitory concentration [12, 62]: >128 | Minimum inhibitory concentration [12, 63]: 128 | Minimum inhibitory concentration [12, 64]: >128 | Minimum inhibitory concentration [12, 65]: >128
